In US11484599B2, “Polymer conjugate vaccines” (The University of Chicago, priority 2015, dated 2022):

What was measured:
[1] = test system: bone marrow derived dendritic cells (BMDCs); assay: Viability / toxicity in treated BMDCs; type: cell-based; conditions: 10 μM
From the text: Given that DCs are the primary target for the polymer-conjugates, Applicants treated bone marrow derived dendritic cells (BMDCs) with various concentrations of TLR7-MA, p(man-TLR), or the synthetic oligonucleotide CpG, a powerful TLR-9 agonist.

[2] = molecular target: T1, TLR7 (Homo sapiens, UniProt Q9NYK1); assay: HEK-Blue TLR7-activation reporter cell assay; conditions: media with 2.0 μM agonist (polymer: 2.0 μM of TLR7-MA in polymeric form), 12 h
T1 sequence (Q9NYK1 27-1049): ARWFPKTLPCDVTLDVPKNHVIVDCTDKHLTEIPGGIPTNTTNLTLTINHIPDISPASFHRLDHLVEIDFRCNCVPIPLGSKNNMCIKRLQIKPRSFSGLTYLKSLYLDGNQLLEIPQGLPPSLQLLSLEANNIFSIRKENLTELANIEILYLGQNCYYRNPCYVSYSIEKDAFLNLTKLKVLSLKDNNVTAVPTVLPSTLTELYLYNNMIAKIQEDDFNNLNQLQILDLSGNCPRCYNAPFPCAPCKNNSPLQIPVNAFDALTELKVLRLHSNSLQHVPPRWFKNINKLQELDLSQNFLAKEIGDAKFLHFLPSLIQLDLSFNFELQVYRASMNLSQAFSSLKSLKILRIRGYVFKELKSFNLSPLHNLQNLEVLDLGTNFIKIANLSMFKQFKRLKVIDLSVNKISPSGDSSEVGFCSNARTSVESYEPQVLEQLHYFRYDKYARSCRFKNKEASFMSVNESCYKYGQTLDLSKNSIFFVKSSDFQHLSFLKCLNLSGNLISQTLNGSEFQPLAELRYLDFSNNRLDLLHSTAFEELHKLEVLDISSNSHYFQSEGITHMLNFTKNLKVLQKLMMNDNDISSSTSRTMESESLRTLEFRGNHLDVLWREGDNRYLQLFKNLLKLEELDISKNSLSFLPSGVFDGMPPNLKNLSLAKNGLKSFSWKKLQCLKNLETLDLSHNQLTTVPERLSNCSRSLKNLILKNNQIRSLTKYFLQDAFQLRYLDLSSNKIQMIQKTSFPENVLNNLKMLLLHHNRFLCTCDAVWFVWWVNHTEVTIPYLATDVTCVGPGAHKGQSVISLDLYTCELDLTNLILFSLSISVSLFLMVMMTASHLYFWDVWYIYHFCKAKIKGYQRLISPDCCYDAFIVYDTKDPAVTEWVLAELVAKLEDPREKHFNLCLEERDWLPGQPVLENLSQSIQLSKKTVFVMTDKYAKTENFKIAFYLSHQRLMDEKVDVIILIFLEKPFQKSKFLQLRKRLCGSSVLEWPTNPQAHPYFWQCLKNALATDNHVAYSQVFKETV

[3] = test system: lymph node resident DC subsets; assay: Uptake of fluorescently labeled OVA by lymph node DC subsets after i.d. injection; type: in vivo, mice; conditions: 12 h
Method: Mice were treated with an intradermal injection of fluorescently labeled OVA or fluorescently labeled OVA conjugated to either p(Man) or p(Man-TLR). After 12 h, the lymph nodes of the animals were harvested and the cells of the lymph nodes were analyzed for fluorescently labeled OVA content via flow cytometry. Conjugation of OVA to p(Man-TLR) increases the uptake of OVA by CD8+ cross-presenting DCs (a.), CD4+ activating DCs (b.), CD4−/CD8− lymph node resident DCs (c.), and conventional dermal DCs (d.).
It is contemplated that conjugating p(Man-TLR) to antigens will improve their uptake by DCs and increased DC activation. […] After 12 h, the lymph node resident DC subsets of these animals were analyzed for fOVA.

[4] = test system: circumsporozite protein (CSP) from Plasmodium falciparum; assay: Example 12: vaccination with malaria antigen CSP formulations, cellular and humoral response; type: in vivo, mice
Method: FIG. 17: To characterize the response to an actual vaccinal antigen, and to compare to an advanced clinical adjuvant, the inventors made the polymer conjugate formulation with the P. falciparum antigen CSP (the full-length protein).
FIG. 18: To characterize humoral responses to the CSP-p(Man-TLR) polymer conjugate formulation, Tfh cells were characterized in the spleen and IgG concentrations were measured in the blood.
The inventors benchmarked the performance of antigen-p(Man-TLR) conjugates against other vaccine adjuvant formulations that have been reported to produce effective immune responses, using a malaria antigen, specifically circumsporozite protein (CSP) from Plasmodium falciparum. Mice were treated on days 0 and 21 via intradermal injection into the 4 footpads with CSP-p(Man-TLR), CSP and MPLA/QS-21 liposomes (AS01E), CSP and the adjuvant R848, CSP and poly(I:C), or saline (Vehicle). AS01E is used in a clinical malaria vaccine formulation. All animals treated with formulations containing CSP received 10 μg of CSP. Animals treated with CSP-p(Man-TLR) received 20 μg TLR agonist in the polymeric form. Animals treated with AS01E received 2.5 μg of QS21. Animals treated with CSP and R848 were treated with 20 μg of R848. Animals treated with CSP and poly(I:C) received 15 μg poly(I:C). […] CSP-p(Man-TLR) induced a robust humoral response.

[5] = test system: CSP peptide stretches; assay: Breadth of IgG response on arrays of peptides from the sequence of CSP; type: in vivo, mice

C=C(C)C(=O)NCCOC(=O)NCc1ccc(Cn2c(COCC)nc3c(N)nc4ccccc4c32)cc1 [TLR7-MA, 2-methacrylamidoethyl 4-((4-amino-2-(ethoxymethyl)-1H-imidazo[4,5-c]quinolin-1-yl)methyl)benzylcarbamate]
cell viability / toxicity [1]: no significant decrease in viability
increase in TLR7 activation [2]: 4 fold

fOVA-p(Man-TLR): fluorescently labeled Ovalbumin (fOVA) conjugated to p(Man-TLR)
fOVA positive CD8+ cross presenting DCs vs fOVA ([3]; FIG. 9A): More than twice as many
increase in number of CD4 activating DCs positive for fOVA vs fOVA ([3]; FIG. 9B): 3 fold
targeting of double negative DCs and dermal conventional DCs vs free fOVA ([3]; FIG. 9C-D): able to target both double negative DCs and dermal conventional DCs
OVA uptake by DCs vs fOVA ([3]; lymph node DCs): took up significantly more OVA

B1: CSP-p(Man-TLR): P. falciparum circumsporozite protein (CSP, full-length) conjugated to p(Man-TLR) (conjugate, UniProt P02893 1-412, looked up)
chain: MMRKLAILSVSSFLFVEALFQEYQCYGSSSNTRVLNELNYDNAGTNLYNELEMNYYGKQENWYSLKKNSRSLGENDDGNNNNGDNGREGKDEDKRDGNNEDNEKLRKPKHKKLKQPGDGNPDPNANPNVDPNANPNVDPNANPNVDPNANPNANPNANPNANPNANPNANPNANPNANPNANPNANPNANPNANPNANPNANPNANPNVDPNANPNANPNANPNANPNANPNANPNANPNANPNANPNANPNANPNANPNANPNANPNANPNANPNANPNANPNANPNKNNQGNGQGHNMPNDPNRNVDENANANNAVKNNNNEEPSDKHIEQYLKKIKNSISTEWSPCSVTCGNGIQVRIKPGSANKPKDELDYENDIEKKICKMEKCSSVFNVVNSSIGLIMVLSFLFLN
modifications: full-length p(Man-TLR) polymer conjugate
IFNγ+CD8+ cells in the lymph nodes vs CSP and R848 and CSP and AS01E ([4]; days 0 and 21): induced more IFNγ+CD8+ cells in the lymph nodes
splenic T follicular helper cells and total IgG response in the blood vs other treatments ([4]; days 0 and 21): generated more splenic T follicular helper cells and a more robust total IgG response in the blood
IFNγ+ and TNFα+ CD4+ T cells in the spleen vs other therapies ([4]; intradermal, 4 footpads, days 0 and 21, 10 μg CSP, 20 μg TLR agonist): induces more IFNγ+ and TNFα+ cCD4+ T cells in the spleen
highest value in the plot of antibody response to CSP regions ([5]; FIG. 21): approx. 60000 units
breadth of IgG response ([5]; antibodies binding to CSP peptide arrays): induced a broader and/or qualitatively distinct IgG response
